Entries after “also recorded” stand apart in the source; their conditions may differ. Counter-ions that a name gives are not always drawn. Like-named read-outs stand apart in the source and are kept apart here. *1 amine or outer side, *2 acyl side, *3 side chain or, on linkers, in order; H or OH if unused. Where a SMILES comes first, the peptide text is derived from it. Bridges are numbered along the chain shown (N, C = ends). Roman numbers before positions name the chains, in order. [ ]: non-standard residue; d: D form. Actinocin(9to1) = Cc1c2oc3c(C)ccc(C(=O)[*:1])c3nc-2c(C(=O)[*:2])c(N)c1=O; NMeV = CN[C@H](C(=O)O)C(C)C; Sar = CNCC(=O)O
Key:
[1] = physiological pH; cited from earlier work
[2] = cited from earlier work; for absorption: oral / gastrointestinal absorption; for peak concentration in plasma: usual clinical doses
[3] = cited from earlier work
[4] = cited from earlier work; remark: listed apart in the source
[5] = cited from earlier work; remark: listed apart in the source
[6] = mouse, in vivo
[7] = test system: Human lung carcinoma cells A549; type: in vivo, mice
[8] = mouse, in vivo; remark: listed apart in the source
[9] = test system: Human colon carcinoma cells, SW-480; type: in vivo, mice
[10] = test system: Human breast carcinoma cells, MDA-MB-231; type: in vivo, mice
p53 [11] = type: cell-based
MCF10A cells = type: cell-based, human
[12] = mouse, in vivo; remark: listed apart in the source
[13] = mouse, in vivo; remark: listed apart in the source
[14] = test system: human adult foreskin keratinocytes; settings: cited from earlier work
[15] = test system: peripheral blood lymphocytes; design: species or system mice; settings: mouse, in vivo
[16] = design: species or system mice; settings: mouse, in vivo
p53 [17] = test: C57BL/6 WT and p53 R172P knock-in mice, protection by arsenic (body weight); type: in vivo; settings: p53 mutant (R172P knock-in) mice, in contrast with wild type littermates
Procedure: Mutant p53 expressing mouse model was employed to test whether the observed protective effect of arsenic was mediated by p53 inactivation. Black C57BL/6 WT or p53 R172P knock in mice at age of 4-6 weeks old) were obtained from Dr. Lazona. Mice were housed under pathogen-free conditions and maintained on a 12 h light/12 h dark cycle, with food and water supplied ad libitum., mice were randomized into following groups; control; X-ray irradiation only; arsenite and X-ray irradiation. For arsenite pretreatment, mice were fed with water containing sodium arsenite (as 1.0 mg/L) for 3 days. Mice were then irradiated with 2Gy TBI daily for one week. Body weight was monitored throughout the period of the experiment. The numbers are means±SE from two independent experiments with total of 10 mice per group.

[18] = 5FU 30 mg/kg i.v. daily for one week

O=NN(CCCl)C(=O)NC1CCCCC1 [Lomustine, 1-(2-chloro-ethyl)-3-cyclohexyl-1nitrosourea]
ionisation [1]: relatively unionized
tissue levels ([2]; in vivo, iv): comparable to plasma levels
part of radioactivity excreted as degradation products within 24 hours ([2]; in vivo, po): about half

Bleomycin
time to improvement ([3]; Hodgkin's Disease and testicular tumors): ≤ 2 weeks
time to improvement ([3]; squamous cell cancers): ≤ 3 weeks
administered dose recovered in the urine as active bleomycin ([4]; human, in vivo): 60% to 70%
plasma or serum terminal elimination half-life ([4]; patients with creatinine clearance <35 mL per minute, as creatinine clearance decreases): increases exponentially
serum or plasma terminal elimination half-life ([4]; patients with creatinine clearance >35 mL per minute): approximately 115 minutes
tissue concentrations ([5]; hematopoietic tissue / bone marrow): low concentrations
tissue concentrations ([5]; skin, lungs, kidneys, peritoneum, lymphatics): high concentrations

N[C@@H](Cc1ccc(N(CCCl)CCCl)cc1)C(=O)O [Melphalan, 4-(bis(2-chloroethyl)amino)-L-phenylalanine]
patients with a favorable response ([3]; multiple myeloma, oral administration): one third to one half

COc1cccc2c1C(=O)c1c(O)c3c(c(O)c1C2=O)C[C@@](O)([C@H](C)O)C[C@@H]3O[C@H]1C[C@H](N)[C@H](O)[C@H](C)O1 [daunorubicinol]
half-life ([2]; in vivo): about 27 hr

N.N.[Cl][Pt][Cl] [Cisplatin]
absorption [2]: not absorbed orally

COc1cccc2c1C(=O)c1c(O)c3c(c(O)c1C2=O)C[C@@](O)(C(C)=O)C[C@@H]3O[C@H]1C[C@H](N)[C@H](O)[C@H](C)O1 [Daunorubicin, 5,12-Naphthacenedione, (8S-cis)-8-acetyl-10-((3-amino-2,3,6-trideoxy-a-L-lyxo-hexanopyranosyl)oxy)-7,8,9,10-tetrahydro-6,8,11-trihydroxy-10-methoxy hydrochloride]
elimination half-life ([2]; in vivo): about 19 hr
secreted into the bile ([2]; in vivo): ~40%
absorption [2]: poor

COc1cccc2c1C(=O)c1c(O)c3c(c(O)c1C2=O)C[C@@](O)(C(=O)CO)C[C@@H]3O[C@H]1C[C@H](N)[C@H](O)[C@H](C)O1 [Doxorubicin, 5,12-Naphthacenedione, (8s-cis)-10-((3-amino-2,3,6-trideoxy-a-L-lyxo-hexopyranosyl)oxy)-7,8,9,10-tetrahydro-6,8,11-trihydroxy-8-(hydroxyacetyl)-1-methoxy-hydrochloride]
elimination half-life ([2]; in vivo): about 30 hr
excreted into the urine ([2]; in vivo): a few
absorption [2]: absorbed poorly

CO[C@@]12[C@H](COC(N)=O)C3=C(C(=O)C(C)=C(N)C3=O)N1C[C@@H]1N[C@@H]12 [Mitomycin]
time required to reduce the serum concentration by 50% ([4]; 30 mg bolus injection): 17 min
dose excreted unchanged in the urine ([4]; human, in vivo): Approximately 10%

O=c1[nH]cc(F)c(=O)[nH]1 [5FU, Fluorouracil]
bone marrow cellularity [6]: Bone marrow cell exhaustion
damage to the small intestine (crypt size and morphology) [6]: severe damages to the small intestine
tumor volume ([7]; 5FU 30 mg/kg intravenous daily for one week): marked tumor regression
damage to small intestine and bone marrow cells [8]: severe damages to small intestine and bone marrow cells
tumor volume [9, 18]: marked tumor regression
tumor volume [10, 18]: marked tumor regression

Cc1c2oc3c(C)ccc(C(=O)N[C@@H]4C(=O)N[C@H](C(C)C)C(=O)N5CCC[C@H]5C(=O)N(C)CC(=O)N(C)[C@@H](C(C)C)C(=O)O[C@@H]4C)c3nc-2c(C(=O)N[C@@H]2C(=O)N[C@H](C(C)C)C(=O)N3CCC[C@H]3C(=O)N(C)CC(=O)N(C)[C@@H](C(C)C)C(=O)O[C@@H]2C)c(N)c1=O [Actinomycin D] (I: T[dV]P[Sar][NMeV] / II: T[dV]P[Sar][NMeV]; ester I:1-I:C, II:1-II:C; linker I:N-II:N via Actinocin(9to1))
excreted into the urine ([2]; in vivo): 10%
half-life ([2]; in vivo): about 36 hr
part of the dose excreted intact into the bile ([2]; in vivo): Half
passage of the blood-brain barrier ([2]; in vivo): does not pass the blood-brain barrier

CS(=O)(=O)OCCCCOS(C)(=O)=O [Busulfan, 1,4-butanediol dimethanesulfonate]
adults obtaining hematologic remission ([3]; previously untreated chronic myelogenous leukemia): Approximately 90%

sodium arsenite [arsenic]
Hdm2 expression and p53 localisation (p53 [11]): upregulation of Hdm2 and accumulation of p53 in the cytoplasm
p53 response to genotoxic stress (p53 [11]): impaired p53 activation and apoptosis
5FU-induced body weight loss after arsenic pretreatment [6]: almost completely prevented
5FU-induced decrease of bone marrow cellularity after arsenic pretreatment [6]: considerably alleviated
5FU-induced small intestine damage after arsenic pretreatment [6]: significantly ameliorated
body weight [6]: little loss of body weight
reversibility of p53 inhibition (MCF10A cells): transient and can be completely reversed
time after arsenic removal until radiation-induced p53 activation is almost completely recovered (MCF10A cells): 7 days
time in arsenic-free media until radiation-induced p53 activation is detectable (MCF10A cells): 5 days
p53-dependent tissue damages induced by 5FU [12]: significantly blunted
5FU-induced body weight loss after arsenic pretreatment [13]: almost completely prevented
effect of arsenic pretreatment on 5FU-induced tumor suppression ([7]; mouse, in vivo): little effect
effect of arsenic pretreatment on irradiation-induced tumor suppression ([7]; mouse, in vivo): little effect
growth of the implant tumors ([7]; mouse, in vivo): did not have any detectable effect
cell proliferation (with enhanced NF-κB and AP-1 activity) [14]: induced proliferation
cell viability [14]: statistically significant decrease of cell viability
day of complete return to untreated level of radiation-induced p53 accumulation and p21 expression [15]: 9 days
day of partial recovery of radiation-induced p53 accumulation and p21 expression [15]: 7 days
radiation-induced p53 accumulation and p21 expression [15]: suppressed
reversibility of p53 suppression [15]: temporary and reversible
body weight [8]: little loss of body weight
damage to small intestine and bone marrow cells after arsenic pretreatment [8]: significantly inhibited
therapy-induced body weight loss after arsenic pretreatment [8]: effectively prevented
duration of pretreatment adequate for optimal protection [16]: 3 days
protection (body weight) [16]: a protection less than 3-day pretreatment; also recorded: no further increase of benefits
effect of arsenic pretreatment on 5FU-induced tumor suppression ([9]; mouse, in vivo): little effect
growth of the implanted tumors ([9]; mouse, in vivo): did not have any detectable effect
protection against therapy-induced toxicity (p53 [17]): little protection
effect of arsenic pretreatment on 5FU-induced tumor suppression ([10]; mouse, in vivo): little effect

CC[C@]1(O)C[C@H]2CN(CCc3c([nH]c4ccccc34)[C@@](C(=O)OC)(c3cc4c(cc3OC)N(C=O)[C@H]3[C@@](O)(C(=O)OC)[C@H](OC(C)=O)[C@]5(CC)C=CCN6CC[C@]43[C@@H]65)C2)C1 [Vincristine]
plasma protein binding ([2]; in vivo): bind to plasma proteins
terminal half-life ([2]; multiphasic clearance from the plasma): about 24 hours
absorption [2]: Unpredictable absorption
peak concentration in plasma [2]: approximately 0.4 mM

CC[C@]1(O)C[C@@H]2CN(CCc3c([nH]c4ccccc34)[C@@](C(=O)OC)(c3cc4c(cc3OC)N(C)[C@H]3[C@@](O)(C(=O)OC)[C@H](OC(C)=O)[C@]5(CC)C=CCN6CC[C@]43[C@@H]65)C2)C1 [Vinblastine]
half-life of disappearance from plasma after distribution, first ([2]; after intravenous injection): approximately 1 hours
half-life of disappearance from plasma after distribution, second ([2]; after intravenous injection): ~20 h
excreted into the urine ([2]; in vivo): Approximately 15%
plasma protein binding ([2]; in vivo): bind to plasma proteins
recovered in the feces after biliary excretion ([2]; in vivo): about 10%
absorption [2]: Unpredictable absorption
peak concentration in plasma [2]: approximately 0.4 mM

O=C(O)CCCc1ccc(N(CCCl)CCCl)cc1 [Chlorambucil, 4-(bis(2-chlorethyl)amino)benzenebutanoic acid]
absorption [2]: rapidly and completely absorbed
